# Data: ChEMBL document CHEMBL4673364, “Synthesis and cytotoxic activity of new 7-acetoxy-12-amino-14-deoxy andrographolide analogues” (Bioorg Med Chem Lett, 2021)
# Test system: not listed separately
# Assay: Cytotoxicity against rat ASK cells assessed as reduction in cell viability by SRB assay
# Type: functional, cell-based
row,Structure (SMILES),IC50 [µM]
1,C=C1[C@@H](OC(C)=O)C[C@@H]2[C@](C)(CO[Si](C)(C)C(C)(C)C)[C@H](OC(C)=O)CC[C@@]2(C)[C@@H]1C[C@@H](Nc1ccc(OC)cc1)C1=CCOC1=O,4.56
2,C=C1[C@@H](OC(C)=O)C[C@@H]2[C@](C)(CO[Si](C)(C)C(C)(C)C)[C@H](OC(C)=O)CC[C@@]2(C)[C@@H]1C[C@@H](Nc1cccc2ccccc12)C1=CCOC1=O,6.33
3,Cc1c2ccncc2c(C)c2c1[nH]c1ccccc12 [ELLIPTECINE],2.42
4,C=C1[C@@H](OC(C)=O)C[C@@H]2[C@](C)(CO[Si](C)(C)C(C)(C)C)[C@H](OC(C)=O)CC[C@@]2(C)[C@@H]1C[C@@H](Nc1ccc(O)cc1)C1=CCOC1=O,5
5,C=C1[C@@H](OC(C)=O)C[C@@H]2[C@](C)(COC=O)[C@H](OC(C)=O)CC[C@@]2(C)[C@@H]1C[C@@H](Nc1ccc(C(=O)O)cc1)C1=CCOC1=O,> 50
6,C=C1[C@@H](OC(C)=O)C[C@@H]2[C@](C)(COC=O)[C@H](OC(C)=O)CC[C@@]2(C)[C@@H]1C/C=C1/C(=O)OC[C@H]1OC(C)=O,19.2
7,C=C1[C@@H](OC(C)=O)C[C@@H]2[C@](C)(COC=O)[C@H](OC(C)=O)CC[C@@]2(C)[C@@H]1C[C@@H](Nc1ccccc1F)C1=CCOC1=O,31.6

# Test system: HT-29
# Assay: Cytotoxicity against human HT-29 cells assessed as reduction in cell viability by SRB assay
# Type: functional, cell-based
row,Structure (SMILES),IC50 [µM]
1,C=C1[C@@H](OC(C)=O)C[C@@H]2[C@](C)(CO[Si](C)(C)C(C)(C)C)[C@H](OC(C)=O)CC[C@@]2(C)[C@@H]1C[C@@H](Nc1ccc(OC)cc1)C1=CCOC1=O,5.37
2,C=C1[C@@H](OC(C)=O)C[C@@H]2[C@](C)(CO[Si](C)(C)C(C)(C)C)[C@H](OC(C)=O)CC[C@@]2(C)[C@@H]1C[C@@H](Nc1cccc2ccccc12)C1=CCOC1=O,15
3,Cc1c2ccncc2c(C)c2c1[nH]c1ccccc12 [ELLIPTECINE],2.59
4,C=C1[C@@H](OC(C)=O)C[C@@H]2[C@](C)(CO[Si](C)(C)C(C)(C)C)[C@H](OC(C)=O)CC[C@@]2(C)[C@@H]1C[C@@H](Nc1ccc(O)cc1)C1=CCOC1=O,6.14
5,C=C1[C@@H](OC(C)=O)C[C@@H]2[C@](C)(COC=O)[C@H](OC(C)=O)CC[C@@]2(C)[C@@H]1C[C@@H](Nc1ccc(C(=O)O)cc1)C1=CCOC1=O,37.2
6,C=C1[C@@H](OC(C)=O)C[C@@H]2[C@](C)(COC=O)[C@H](OC(C)=O)CC[C@@]2(C)[C@@H]1C/C=C1/C(=O)OC[C@H]1OC(C)=O,8.29
7,C=C1[C@@H](OC(C)=O)C[C@@H]2[C@](C)(COC=O)[C@H](OC(C)=O)CC[C@@]2(C)[C@@H]1C[C@@H](Nc1ccccc1F)C1=CCOC1=O,9.76

# Test system: not listed separately
# Assay: Cytotoxicity against human K213 cells assessed as reduction in cell viability by SRB assay
# Type: functional, cell-based
row,Structure (SMILES),IC50 [µM]
1,C=C1[C@@H](OC(C)=O)C[C@@H]2[C@](C)(CO[Si](C)(C)C(C)(C)C)[C@H](OC(C)=O)CC[C@@]2(C)[C@@H]1C[C@@H](Nc1ccc(OC)cc1)C1=CCOC1=O,5.2
2,C=C1[C@@H](OC(C)=O)C[C@@H]2[C@](C)(CO[Si](C)(C)C(C)(C)C)[C@H](OC(C)=O)CC[C@@]2(C)[C@@H]1C[C@@H](Nc1cccc2ccccc12)C1=CCOC1=O,15.3
3,Cc1c2ccncc2c(C)c2c1[nH]c1ccccc12 [ELLIPTECINE],2.11
4,C=C1[C@@H](OC(C)=O)C[C@@H]2[C@](C)(CO[Si](C)(C)C(C)(C)C)[C@H](OC(C)=O)CC[C@@]2(C)[C@@H]1C[C@@H](Nc1ccc(O)cc1)C1=CCOC1=O,9.25
5,C=C1[C@@H](OC(C)=O)C[C@@H]2[C@](C)(COC=O)[C@H](OC(C)=O)CC[C@@]2(C)[C@@H]1C[C@@H](Nc1ccc(C(=O)O)cc1)C1=CCOC1=O,> 50
6,C=C1[C@@H](OC(C)=O)C[C@@H]2[C@](C)(COC=O)[C@H](OC(C)=O)CC[C@@]2(C)[C@@H]1C/C=C1/C(=O)OC[C@H]1OC(C)=O,20.8
7,C=C1[C@@H](OC(C)=O)C[C@@H]2[C@](C)(COC=O)[C@H](OC(C)=O)CC[C@@]2(C)[C@@H]1C[C@@H](Nc1ccccc1F)C1=CCOC1=O,31

# Test system: KB
# Assay: Cytotoxicity against human KB cells assessed as reduction in cell viability by SRB assay
# Type: functional, cell-based
row,Structure (SMILES),IC50 [µM]
1,C=C1[C@@H](OC(C)=O)C[C@@H]2[C@](C)(CO[Si](C)(C)C(C)(C)C)[C@H](OC(C)=O)CC[C@@]2(C)[C@@H]1C[C@@H](Nc1ccc(OC)cc1)C1=CCOC1=O,5.63
2,C=C1[C@@H](OC(C)=O)C[C@@H]2[C@](C)(CO[Si](C)(C)C(C)(C)C)[C@H](OC(C)=O)CC[C@@]2(C)[C@@H]1C[C@@H](Nc1cccc2ccccc12)C1=CCOC1=O,8.93
3,Cc1c2ccncc2c(C)c2c1[nH]c1ccccc12 [ELLIPTECINE],2.2
4,C=C1[C@@H](OC(C)=O)C[C@@H]2[C@](C)(CO[Si](C)(C)C(C)(C)C)[C@H](OC(C)=O)CC[C@@]2(C)[C@@H]1C[C@@H](Nc1ccc(O)cc1)C1=CCOC1=O,8.35
5,C=C1[C@@H](OC(C)=O)C[C@@H]2[C@](C)(COC=O)[C@H](OC(C)=O)CC[C@@]2(C)[C@@H]1C[C@@H](Nc1ccc(C(=O)O)cc1)C1=CCOC1=O,> 50
6,C=C1[C@@H](OC(C)=O)C[C@@H]2[C@](C)(COC=O)[C@H](OC(C)=O)CC[C@@]2(C)[C@@H]1C/C=C1/C(=O)OC[C@H]1OC(C)=O,21.6
7,C=C1[C@@H](OC(C)=O)C[C@@H]2[C@](C)(COC=O)[C@H](OC(C)=O)CC[C@@]2(C)[C@@H]1C[C@@H](Nc1ccccc1F)C1=CCOC1=O,29

# Test system: MCF7
# Assay: Cytotoxicity against human MCF7 cells assessed as reduction in cell viability by SRB assay
# Type: functional, cell-based
row,Structure (SMILES),IC50 [µM]
1,C=C1[C@@H](OC(C)=O)C[C@@H]2[C@](C)(CO[Si](C)(C)C(C)(C)C)[C@H](OC(C)=O)CC[C@@]2(C)[C@@H]1C[C@@H](Nc1ccc(OC)cc1)C1=CCOC1=O,4.28
2,C=C1[C@@H](OC(C)=O)C[C@@H]2[C@](C)(CO[Si](C)(C)C(C)(C)C)[C@H](OC(C)=O)CC[C@@]2(C)[C@@H]1C[C@@H](Nc1cccc2ccccc12)C1=CCOC1=O,5.77
3,Cc1c2ccncc2c(C)c2c1[nH]c1ccccc12 [ELLIPTECINE],2.18
4,C=C1[C@@H](OC(C)=O)C[C@@H]2[C@](C)(CO[Si](C)(C)C(C)(C)C)[C@H](OC(C)=O)CC[C@@]2(C)[C@@H]1C[C@@H](Nc1ccc(O)cc1)C1=CCOC1=O,5.22
5,C=C1[C@@H](OC(C)=O)C[C@@H]2[C@](C)(COC=O)[C@H](OC(C)=O)CC[C@@]2(C)[C@@H]1C[C@@H](Nc1ccc(C(=O)O)cc1)C1=CCOC1=O,41.6
6,C=C1[C@@H](OC(C)=O)C[C@@H]2[C@](C)(COC=O)[C@H](OC(C)=O)CC[C@@]2(C)[C@@H]1C/C=C1/C(=O)OC[C@H]1OC(C)=O,12.9
7,C=C1[C@@H](OC(C)=O)C[C@@H]2[C@](C)(COC=O)[C@H](OC(C)=O)CC[C@@]2(C)[C@@H]1C[C@@H](Nc1ccccc1F)C1=CCOC1=O,16.4

# Test system: A549
# Assay: Cytotoxicity against human A549 cells assessed as reduction in cell viability by SRB assay
# Type: functional, cell-based
row,Structure (SMILES),IC50 [µM]
1,C=C1[C@@H](OC(C)=O)C[C@@H]2[C@](C)(CO[Si](C)(C)C(C)(C)C)[C@H](OC(C)=O)CC[C@@]2(C)[C@@H]1C[C@@H](Nc1ccc(OC)cc1)C1=CCOC1=O,4.81
2,C=C1[C@@H](OC(C)=O)C[C@@H]2[C@](C)(CO[Si](C)(C)C(C)(C)C)[C@H](OC(C)=O)CC[C@@]2(C)[C@@H]1C[C@@H](Nc1cccc2ccccc12)C1=CCOC1=O,4.97
3,Cc1c2ccncc2c(C)c2c1[nH]c1ccccc12 [ELLIPTECINE],2.13
4,C=C1[C@@H](OC(C)=O)C[C@@H]2[C@](C)(CO[Si](C)(C)C(C)(C)C)[C@H](OC(C)=O)CC[C@@]2(C)[C@@H]1C[C@@H](Nc1ccc(O)cc1)C1=CCOC1=O,5.09
5,C=C1[C@@H](OC(C)=O)C[C@@H]2[C@](C)(COC=O)[C@H](OC(C)=O)CC[C@@]2(C)[C@@H]1C[C@@H](Nc1ccc(C(=O)O)cc1)C1=CCOC1=O,> 50
6,C=C1[C@@H](OC(C)=O)C[C@@H]2[C@](C)(COC=O)[C@H](OC(C)=O)CC[C@@]2(C)[C@@H]1C/C=C1/C(=O)OC[C@H]1OC(C)=O,19
7,C=C1[C@@H](OC(C)=O)C[C@@H]2[C@](C)(COC=O)[C@H](OC(C)=O)CC[C@@]2(C)[C@@H]1C[C@@H](Nc1ccccc1F)C1=CCOC1=O,23.6

# Test system: not listed separately
# Assay: Cytotoxicity against human K055 cells assessed as reduction in cell viability by SRB assay
# Type: functional, cell-based
row,Structure (SMILES),IC50 [µM]
1,C=C1[C@@H](OC(C)=O)C[C@@H]2[C@](C)(CO[Si](C)(C)C(C)(C)C)[C@H](OC(C)=O)CC[C@@]2(C)[C@@H]1C[C@@H](Nc1ccc(OC)cc1)C1=CCOC1=O,5.6
2,C=C1[C@@H](OC(C)=O)C[C@@H]2[C@](C)(CO[Si](C)(C)C(C)(C)C)[C@H](OC(C)=O)CC[C@@]2(C)[C@@H]1C[C@@H](Nc1cccc2ccccc12)C1=CCOC1=O,6.72
3,Cc1c2ccncc2c(C)c2c1[nH]c1ccccc12 [ELLIPTECINE],2.04
4,C=C1[C@@H](OC(C)=O)C[C@@H]2[C@](C)(CO[Si](C)(C)C(C)(C)C)[C@H](OC(C)=O)CC[C@@]2(C)[C@@H]1C[C@@H](Nc1ccc(O)cc1)C1=CCOC1=O,5.95
5,C=C1[C@@H](OC(C)=O)C[C@@H]2[C@](C)(COC=O)[C@H](OC(C)=O)CC[C@@]2(C)[C@@H]1C[C@@H](Nc1ccc(C(=O)O)cc1)C1=CCOC1=O,48.3
6,C=C1[C@@H](OC(C)=O)C[C@@H]2[C@](C)(COC=O)[C@H](OC(C)=O)CC[C@@]2(C)[C@@H]1C/C=C1/C(=O)OC[C@H]1OC(C)=O,15.3
7,C=C1[C@@H](OC(C)=O)C[C@@H]2[C@](C)(COC=O)[C@H](OC(C)=O)CC[C@@]2(C)[C@@H]1C[C@@H](Nc1ccccc1F)C1=CCOC1=O,30.3

# Test system: not listed separately
# Assay: Cytotoxicity against human P388 cells assessed as reduction in cell viability by SRB assay
# Type: functional, cell-based
row,Structure (SMILES),IC50 [µM]
1,C=C1[C@@H](OC(C)=O)C[C@@H]2[C@](C)(CO[Si](C)(C)C(C)(C)C)[C@H](OC(C)=O)CC[C@@]2(C)[C@@H]1C[C@@H](Nc1ccc(OC)cc1)C1=CCOC1=O,4.03
2,C=C1[C@@H](OC(C)=O)C[C@@H]2[C@](C)(CO[Si](C)(C)C(C)(C)C)[C@H](OC(C)=O)CC[C@@]2(C)[C@@H]1C[C@@H](Nc1cccc2ccccc12)C1=CCOC1=O,5.74
3,Cc1c2ccncc2c(C)c2c1[nH]c1ccccc12 [ELLIPTECINE],1.87
4,C=C1[C@@H](OC(C)=O)C[C@@H]2[C@](C)(CO[Si](C)(C)C(C)(C)C)[C@H](OC(C)=O)CC[C@@]2(C)[C@@H]1C[C@@H](Nc1ccc(O)cc1)C1=CCOC1=O,5.03
5,C=C1[C@@H](OC(C)=O)C[C@@H]2[C@](C)(COC=O)[C@H](OC(C)=O)CC[C@@]2(C)[C@@H]1C[C@@H](Nc1ccc(C(=O)O)cc1)C1=CCOC1=O,22.2
6,C=C1[C@@H](OC(C)=O)C[C@@H]2[C@](C)(COC=O)[C@H](OC(C)=O)CC[C@@]2(C)[C@@H]1C/C=C1/C(=O)OC[C@H]1OC(C)=O,4.55
7,C=C1[C@@H](OC(C)=O)C[C@@H]2[C@](C)(COC=O)[C@H](OC(C)=O)CC[C@@]2(C)[C@@H]1C[C@@H](Nc1ccccc1F)C1=CCOC1=O,5.97
